Results reported in patent publication US20240067631A1, “PYRAZOLE DERIVATIVES USEFUL AS NAMPT MODULATORS” (Cytokinetics, Inc., priority 2020, published 2024).

Tests used:
endogenous NAMPT = endogenous NAMPT (Homo sapiens (Human), UniProt P43490); test: Cellular NAD+ modulation assay in SH-SY5Y cells with doxorubicin; format: cell-based; conditions: Neuroblastoma SH-SY5Y cells, 40 hours, cellular NAD levels; for EC50: read-out: SY5Y (human) NAD Cell Dox EC50
Experimental: The compounds described herein were also assayed for their ability to stimulate the endogenous NAMPT in a native cellular environment in the cellular NAD+ modulation assay, which measures the ability of the compound to modulate cellular NAD levels. Increased levels of NAD are expected by compounds that permeate the cells and activate the catalytic activity of the endogenous NAMPT.
Neuroblastoma SH-SY5Y cells were grown in 1:1 mixture of Eagle's Minimum Essential Medium and F12 Medium, along with 10% fetal bovine serum, in a humidified incubator with an atmosphere of 95% air and 5% CO2 at 37° C. The assays were initiated by plating 20 μL of SH-SY5Y cells in culture medium with 0.1% fetal bovine serum, at a density of 5000 cells per well to a 384-well Corning™ BioCoat™ Poly-D-Lysine Multiwell Plates. The plates were incubated in the 37° C. incubators for a period of 5 hours. Compounds in DMSO were added to the plates in a volume of 120 nL using the Labcyte Echo Liquid Handlers. 5 μL of a 1.5 uM Doxorubicin solution in assay medium is added to each well. The plates are then incubated for 40 hours. 30 μL of a readout-solution containing 0.2 U/mL Diaphorase enzyme, 40 uM resazurin, 10 uM FMN, 0.8 U/mL Alcohol dehydrogenase, 3% ethanol, 0.4 mg/mL bovine serum albumin, 0.2% Triton X-100 in 100 mM Tris-HCl, 30 mM EDTA, pH 8.4. The plates were read for fluorescence (Excitation/Emission=540 nm/590 nm) using an EnVision plate reader after 60 mins of incubation at ambient temperature.

human NAMPT = human NAMPT (Homo sapiens (Human), UniProt P43490); test: Human recombinant enzyme assay (NMN fluorescence biochemical assay); conditions: 6 nM human NAMPT, 60 min; for AC1.4 Human: concentration of compound that generates 40% higher activity over basal; for EC50: concentration that gives half-maximal activation
Chain of human NAMPT (P43490 whole entry): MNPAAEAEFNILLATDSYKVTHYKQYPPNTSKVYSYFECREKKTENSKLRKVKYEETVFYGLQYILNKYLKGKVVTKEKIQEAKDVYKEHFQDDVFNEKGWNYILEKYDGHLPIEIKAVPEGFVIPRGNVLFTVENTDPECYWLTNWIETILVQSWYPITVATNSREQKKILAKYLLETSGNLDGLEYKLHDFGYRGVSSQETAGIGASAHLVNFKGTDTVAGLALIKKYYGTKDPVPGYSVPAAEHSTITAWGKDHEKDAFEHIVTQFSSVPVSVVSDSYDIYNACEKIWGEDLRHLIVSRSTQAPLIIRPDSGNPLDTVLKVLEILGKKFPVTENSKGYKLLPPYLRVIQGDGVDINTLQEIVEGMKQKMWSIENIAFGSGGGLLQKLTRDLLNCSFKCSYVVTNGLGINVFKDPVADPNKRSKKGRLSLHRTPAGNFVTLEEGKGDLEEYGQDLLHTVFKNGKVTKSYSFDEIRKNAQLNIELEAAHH
Summary of the method: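 Recombinant human NAMPT (6 nM) with 2.5 mM ATP, […] PRPP and […] nicotinamide in HEPES pH 7.2 with DTT, CHAPS, NaCl, MgCl2; 60 min at ambient temperature. NMN derivatised with acetophenone/KOH/formic acid, fluorescence read at 355/460 nm. AC1.4 (40% above basal) and EC50 reported.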

Chain of endogenous NAMPT (P43490 whole entry): as above

Row | SY5Y (human) NAD Cell Dox AC0.3 (endogenous NAMPT) [µM] | EC50 (endogenous NAMPT) [nM] | AC1.4 Human (human NAMPT) [µM] | EC50 (human NAMPT) [nM] | Compound
1 | 0.07 | 110 | 0.02 | 106 | Cc1nc(C(=O)N[C@H](C)c2cccc(F)n2)nc(NCCc2cn[nH]c2)c1C [Compound 4, (R)-4-((2-(1H-pyrazol-4-yl)ethyl)amino)-N-(1-(6-fluoropyridin-2-yl)ethyl)-5,6-dimethylpyrimidine-2-carboxamide]
2 | 2.68 | 1760 | 0.0235 | 449 | Cc1nc(C(=O)N(C)C(c2cccc(F)c2)c2nccn2C)nc(NCCc2cn[nH]c2)c1C (stereo not shown) [Compound 5, 4-((2-(1H-pyrazol-4-yl)ethyl)amino)-N-((3-flurophenyl)(1-methyl-1H-imidazol-2-yl)methyl)-N,5,6-trimethylpyrimidine-2-carboxamide]
3 | 0.19 | 190 | 0.029 | 326 | Cc1nc(C(=O)N2CCOCC2c2cccc(F)c2)nc(NCCc2cn[nH]c2)c1C (stereo not shown) [Compound 7, (4-((2-(1H-pyrazol-4-yl)ethyl)amino)-5,6-dimethylpyrimidin-2-yl)(3-(3-fluorophenyl)morpholino)methanone]
4 | 0.2 | 470 | 0.046 | 520 | Cc1nc(C(=O)N[C@@H](C)c2cccc(F)c2)nc(NCCc2cn[nH]c2)c1C [Compound 10, (S)-4-((2-(1H-pyrazol-4-yl)ethyl)amino)-N-(1-(3-fluorophenyl)ethyl)-5,6-dimethylpyrimidine-2-carboxamide]
5 | 0.24 | 230 | 0.035 | 3740 | Cc1nc(C(=O)N2CCC[C@@H]2c2cccc(Cl)c2)nc(NCCc2cn[nH]c2)c1C [Compound 13, (R)-(4-((2-(1H-pyrazol-4-yl)ethyl)amino)-5,6-dimethylpyrimidin-2-yl)(2-(3-chlorophenyl)pyrrolidin-1-yl)methanone]
6 | 0.28 | 480 | 0.054 | 156 | Cc1nc(C(=O)N[C@H](C)c2cccs2)nc(NCCc2cn[nH]c2)c1C [Compound 14, (R)-4-((2-(1H-pyrazol-4-yl)ethyl)amino)-5,6-dimethyl-N-(1-(thiophen-2-yl)ethyl)pyrimidine-2-carboxamide]
7 | 0.26 | 190 | 0.051 | 390 | Cc1nc(C(=O)N2CCC[C@@H]2c2cccc(F)c2)nc(NCCc2cn[nH]c2)c1C [Compound 15, (R)-(4-((2-(1H-pyrazol-4-yl)ethyl)amino)-5,6-dimethylpyrimidin-2-yl)(2-(3-fluorophenyl)pyrrolidin-1-yl)methanone]
8 | 0.41 | 330 | 0.0585 | 621 | Cc1nc(C(=O)N2CCOC[C@H]2c2ccccc2)nc(NCCc2cn[nH]c2)c1C [Compound 16, (R)-(4-((2-(1H-pyrazol-4-yl)ethyl)amino)-5,6-dimethylpyrimidin-2-yl)(3-phenylmorpholino)methanone]
9 | 0.24 | 440 | 0.0715 | 549 | Cc1nc(C(=O)N[C@H](C)c2ccccc2)nc(NCCc2cn[nH]c2)c1C [Compound 17, (R)-4-((2-(1H-pyrazol-4-yl)ethyl)amino)-5,6-dimethyl-N-(1-phenylethyl)pyrimidine-2-carboxamide]
10 | 2.97 | 8790 | 0.062 | 848 | Cc1nc(C(=O)NC(c2cccc(F)c2)c2nccn2C)nc(NCCc2cn[nH]c2)c1C (stereo not shown) [Compound 20, 4-((2-(1H-pyrazol-4-yl)ethyl)amino)-N-((3-fluorophenyl)(1-methyl-1H-imidazol-2-yl)methyl)-5,6-dimethylpyrimidine-2-carboxamide]
11 | 0.13 | 280 | 0.0815 | 550 | Cc1nc(C(=O)NC(C)(C)c2ccccc2)nc(NCCc2cn[nH]c2)c1C [Compound 21, 4-((2-(1H-pyrazol-4-yl)ethyl)amino)-5,6-dimethyl-N-(2-phenylpropan-2-yl)pyrimidine-2-carboxamide]
12 | 7.15 | 8840 | 1.956 | 12800 | Cc1nc(C(=O)N2CC(O)(c3ccccc3)C2)nc(NCCc2cn[nH]c2)c1C [Compound 22, (4-((2-(1H-pyrazol-4-yl)ethyl)amino)-5,6-dimethylpyrimidin-2-yl)(3-hydroxy-3-phenylazetidin-1-yl)methanone]
13 | 1.57 | 3250 | 0.0955 | 3240 | Cc1nc(C(=O)NC(c2cccc(F)c2)c2ncco2)nc(NCCc2cn[nH]c2)c1C (stereo not shown) [Compound 23, 4-((2-(1H-pyrazol-4-yl)ethyl)amino)-N-((3-fluorophenyl)(oxazol-2-yl)methyl)-5,6-dimethylpyrimidine-2-carboxamide]
14 | 2.49 | 2260 | 0.0955 | 770 | Cc1nc(C(=O)N2CCNCC2c2cccc(F)c2)nc(NCCc2cn[nH]c2)c1C (stereo not shown) [Compound 24, (4-((2-(1H-pyrazol-4-yl)ethyl)amino)-5,6-dimethylpyrimidin-2-yl)(2-(3-fluorophenyl)piperazin-1-yl)methanone]
15 | 0.26 | 720 | 0.1215 | 429 | Cc1nc(C(=O)N[C@H](C)c2ccccc2Cl)nc(NCCc2cn[nH]c2)c1C [Compound 26, (R)-4-((2-(1H-pyrazol-4-yl)ethyl)amino)-N-(1-(2-chlorophenyl)ethyl)-5,6-dimethylpyrimidine-2-carboxamide]
16 | 0.28 | 740 | 0.1305 | 1630 | Cc1nc(C(=O)NCC(C)(C)c2cccc(F)c2)nc(NCCc2cn[nH]c2)c1C [Compound 27, 4-((2-(1H-pyrazol-4-yl)ethyl)amino)-N-(2-(3-fluorophenyl)-2-methylpropyl)-5,6-dimethylpyrimidine-2-carboxamide]
17 | 0.88 | 1600 | 0.1725 | 741 | Cc1nc(C(=O)N[C@H](C)c2ncccc2Cl)nc(NCCc2cn[nH]c2)c1C [Compound 30, (R)-4-((2-(1H-pyrazol-4-yl)ethyl)amino)-N-(1-(3-chloropyridin-2-yl)ethyl)-5,6-dimethylpyrimidine-2-carboxamide]
18 | 0.02 |  | <0.003 |  | Cc1nc(C(=O)N[C@H](C)c2cccc(F)n2)nc(NCCc2cn[nH]c2)c1Cl [Compound 147, (R)-4-((2-(1H-pyrazol-4-yl)ethyl)amino)-5-chloro-N-(1-(6-fluoropyridin-2-yl)ethyl)-6-methylpyrimidine-2-carboxamide]
19 | 0.01 |  | 0.02 |  | Cc1nc(C(=O)N[C@H](C)c2cccc(F)n2)nc(NCCc2cn[nH]c2)c1F [Compound 149, (R)-4-((2-(1H-pyrazol-4-yl)ethyl)amino)-5-fluoro-N-(1-(6-fluoropyridin-2-yl)ethyl)-6-methylpyrimidine-2-carboxamide]
20 | 0.17 |  |  |  | C[C@@H](NC(=O)c1cc(Br)cc(NCCc2cn[nH]c2)n1)c1cccc(F)n1 [Compound 151, (R)-6-((2-(1H-pyrazol-4-yl)ethyl)amino)-4-bromo-N-(1-(6-fluoropyridin-2-yl)ethyl)picolinamide]
